The values below come from ChEMBL document CHEMBL3399966, “Isosteric replacements of the carboxylic acid of drug candidate VX-787: Effect of charge on antiviral potency and kinase activity of azaindole-based influenza PB2 inhibitors” (Bioorg Med Chem Lett, 2015).

The term IC50 denotes the concentration that gives 50% inhibition. One may read the EC50 as the midpoint of the concentration-response curve. As a reminder, the EC99 is the concentration needed for an effect of 99%. As a reminder, the Ki is the dissociation constant of the complex between target and ligand, obtained from inhibition or displacement. The low end stands for a stronger hold on the target, the high end for a looser hold on the target.

For assay [1], the system named is Influenza A virus. As to the kind of experiment: Antiviral activity against Influenza A virus A/PR/8/34 strain incubated with MDCK cells assessed as cell protection after 72 hrs by phenotypic cell protection assay. The format is functional, organism-based. The conditions noted are these: A/Puerto Rico/8/1934(H1N1).
The subject of assay [2] is Influenza A virus. Nature of the assay: Antiviral activity against influenza A virus A/PR/8/34 strain incubated with MDCK cells assessed as reduction of viral RNA level equal to 1% of control level after 72 hrs by branched DNA assay. The format is functional, organism-based. The conditions noted are these: A/Puerto Rico/8/1934(H1N1).
Assay [3] has as its target Tyrosine-protein kinase JAK2 (Homo sapiens, UniProt O60674). Nature of the assay: Inhibition of JAK2 (unknown origin).
Assay [4] deals with Glycogen synthase kinase-3 (Homo sapiens, UniProt P49840+P49841). Nature of the assay: Inhibition of GSK3 (unknown origin). In kind it is protein assay.
Assay [5] addresses T1, Receptor-type tyrosine-protein kinase FLT3 (Homo sapiens, UniProt P36888).
T1 sequence (P36888 whole entry): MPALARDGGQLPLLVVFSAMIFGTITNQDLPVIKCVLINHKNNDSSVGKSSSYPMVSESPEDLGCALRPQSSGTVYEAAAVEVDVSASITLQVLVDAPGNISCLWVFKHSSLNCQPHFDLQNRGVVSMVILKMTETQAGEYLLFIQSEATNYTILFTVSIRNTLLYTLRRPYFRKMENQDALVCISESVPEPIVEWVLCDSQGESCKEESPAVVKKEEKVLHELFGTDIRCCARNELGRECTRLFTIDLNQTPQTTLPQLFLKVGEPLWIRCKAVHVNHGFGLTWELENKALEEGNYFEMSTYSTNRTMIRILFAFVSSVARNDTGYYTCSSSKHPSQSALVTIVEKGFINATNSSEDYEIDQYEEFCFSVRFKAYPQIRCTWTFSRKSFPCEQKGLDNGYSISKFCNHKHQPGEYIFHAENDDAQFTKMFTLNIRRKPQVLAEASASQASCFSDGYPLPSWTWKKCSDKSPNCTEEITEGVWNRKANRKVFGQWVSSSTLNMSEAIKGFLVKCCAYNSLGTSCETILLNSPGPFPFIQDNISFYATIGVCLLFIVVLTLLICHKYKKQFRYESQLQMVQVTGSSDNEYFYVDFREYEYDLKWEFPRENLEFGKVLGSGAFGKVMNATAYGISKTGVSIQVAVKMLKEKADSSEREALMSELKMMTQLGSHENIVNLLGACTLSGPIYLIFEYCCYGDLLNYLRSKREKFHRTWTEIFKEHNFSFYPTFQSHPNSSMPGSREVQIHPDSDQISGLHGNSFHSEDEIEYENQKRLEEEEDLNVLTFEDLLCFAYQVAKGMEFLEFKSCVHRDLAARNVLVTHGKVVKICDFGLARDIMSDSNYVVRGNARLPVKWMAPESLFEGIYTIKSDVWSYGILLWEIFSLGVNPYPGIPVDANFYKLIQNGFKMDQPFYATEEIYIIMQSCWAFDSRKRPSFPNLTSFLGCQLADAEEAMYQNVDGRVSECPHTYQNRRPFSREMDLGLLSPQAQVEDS
Nature of the assay: Inhibition of FLT3 (unknown origin).

Assay [6] has as its target Mitogen-activated protein kinase 10 (Homo sapiens, UniProt P53779). As to the kind of experiment: Inhibition of JNK3 (unknown origin).
The target of assay [7] is Rho-associated protein kinase (Homo sapiens, UniProt O75116+Q13464). As to the kind of experiment: Inhibition of ROCK (unknown origin). In kind it is protein-complex assay.
The target of assay [8] is Vascular endothelial growth factor receptor 2 (Homo sapiens, UniProt P35968). As to the kind of experiment: Inhibition of KDR (unknown origin).
In assay [9] the target is Proto-oncogene tyrosine-protein kinase Src (Homo sapiens, UniProt P12931). Nature of the assay: Inhibition of SRC (unknown origin).
Assay [10] concerns the target cAMP-dependent protein kinase catalytic subunit alpha (Homo sapiens, UniProt P17612). Nature of the assay: Inhibition of PKAa (unknown origin).
Assay [11] deals with T2, Interleukin-1 receptor-associated kinase 4 (Homo sapiens, UniProt Q9NWZ3).
T2 sequence (Q9NWZ3 whole entry): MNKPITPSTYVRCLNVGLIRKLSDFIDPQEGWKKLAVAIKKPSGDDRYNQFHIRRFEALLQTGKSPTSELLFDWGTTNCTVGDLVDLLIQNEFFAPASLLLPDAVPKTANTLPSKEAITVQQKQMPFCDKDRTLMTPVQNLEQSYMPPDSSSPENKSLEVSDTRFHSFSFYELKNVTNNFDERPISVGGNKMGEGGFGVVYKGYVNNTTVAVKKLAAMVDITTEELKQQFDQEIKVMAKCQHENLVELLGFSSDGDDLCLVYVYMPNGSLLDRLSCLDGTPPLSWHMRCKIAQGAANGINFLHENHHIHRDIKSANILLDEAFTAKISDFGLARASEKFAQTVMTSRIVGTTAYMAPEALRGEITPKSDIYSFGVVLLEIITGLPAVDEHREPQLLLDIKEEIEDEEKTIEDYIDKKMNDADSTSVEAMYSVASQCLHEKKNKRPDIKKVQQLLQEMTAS
Nature of the assay: Inhibition of IRAK4 (unknown origin).

Assay [12] concerns the target Tyrosine-protein kinase SYK (Homo sapiens, UniProt P43405). Nature of the assay: Inhibition of SYK (unknown origin).
Assay [13] concerns the target Cyclin-dependent kinase 2 (Homo sapiens, UniProt P24941). As to the kind of experiment: Inhibition of CDK2 (unknown origin).
The target of assay [14] is Serine/threonine-protein kinase PLK1 (Homo sapiens, UniProt P53350). Nature of the assay: Inhibition of PLK (unknown origin).
Assay [15] concerns the target Hepatocyte growth factor receptor (Homo sapiens, UniProt P08581). Nature of the assay: Inhibition of MET (unknown origin).
For assay [16], the target named is Phosphatidylinositol 4,5-bisphosphate 3-kinase catalytic subunit alpha isoform (Homo sapiens, UniProt P42336). As to the kind of experiment: Inhibition of PI3Kalpha (unknown origin).
The target of assay [17] is T3, Phosphatidylinositol 4,5-bisphosphate 3-kinase catalytic subunit delta isoform (Homo sapiens, UniProt O00329).
T3 sequence (O00329 whole entry): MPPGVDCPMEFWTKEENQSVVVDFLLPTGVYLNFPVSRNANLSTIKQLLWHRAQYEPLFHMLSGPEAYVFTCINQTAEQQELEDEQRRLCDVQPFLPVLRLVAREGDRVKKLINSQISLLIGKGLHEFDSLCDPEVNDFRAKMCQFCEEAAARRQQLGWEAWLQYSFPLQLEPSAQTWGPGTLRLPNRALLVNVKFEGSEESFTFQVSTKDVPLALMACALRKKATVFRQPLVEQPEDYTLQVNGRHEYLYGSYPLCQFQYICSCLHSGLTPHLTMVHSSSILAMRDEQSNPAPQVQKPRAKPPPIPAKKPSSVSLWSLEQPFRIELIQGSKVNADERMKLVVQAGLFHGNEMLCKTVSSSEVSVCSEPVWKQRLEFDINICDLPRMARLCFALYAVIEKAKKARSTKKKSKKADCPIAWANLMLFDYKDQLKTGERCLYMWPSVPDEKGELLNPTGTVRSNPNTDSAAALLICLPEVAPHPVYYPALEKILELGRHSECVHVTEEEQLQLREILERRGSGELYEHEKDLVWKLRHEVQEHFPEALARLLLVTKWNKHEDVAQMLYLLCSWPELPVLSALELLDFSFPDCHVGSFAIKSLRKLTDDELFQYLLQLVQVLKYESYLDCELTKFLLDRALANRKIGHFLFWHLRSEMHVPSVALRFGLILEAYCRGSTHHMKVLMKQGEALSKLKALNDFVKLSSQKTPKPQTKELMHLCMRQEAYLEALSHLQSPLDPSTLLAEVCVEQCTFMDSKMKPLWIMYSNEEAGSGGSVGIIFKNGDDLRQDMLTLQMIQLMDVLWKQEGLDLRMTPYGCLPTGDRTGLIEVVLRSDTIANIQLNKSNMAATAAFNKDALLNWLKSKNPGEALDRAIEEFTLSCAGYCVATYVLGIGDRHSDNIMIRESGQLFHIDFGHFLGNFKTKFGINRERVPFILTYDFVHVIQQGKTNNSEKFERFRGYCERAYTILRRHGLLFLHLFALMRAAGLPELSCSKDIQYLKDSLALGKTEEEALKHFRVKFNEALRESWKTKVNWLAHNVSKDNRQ
As to the kind of experiment: Inhibition of PI3Kdelta (unknown origin).

The target in assay [18] is Phosphatidylinositol 4,5-bisphosphate 3-kinase catalytic subunit gamma isoform (Homo sapiens, UniProt P48736). As to the kind of experiment: Inhibition of PI3Kgamma (unknown origin).
The target in assay [19] is Phosphatidylinositol 4,5-bisphosphate 3-kinase catalytic subunit beta isoform (Homo sapiens, UniProt P42338). Nature of the assay: Inhibition of PI3Kbeta (unknown origin).
Phosphatidylinositol 4,5-bisphosphate 3-kinase catalytic subunit beta isoform, sequence (P42338 whole entry, canonical isoform): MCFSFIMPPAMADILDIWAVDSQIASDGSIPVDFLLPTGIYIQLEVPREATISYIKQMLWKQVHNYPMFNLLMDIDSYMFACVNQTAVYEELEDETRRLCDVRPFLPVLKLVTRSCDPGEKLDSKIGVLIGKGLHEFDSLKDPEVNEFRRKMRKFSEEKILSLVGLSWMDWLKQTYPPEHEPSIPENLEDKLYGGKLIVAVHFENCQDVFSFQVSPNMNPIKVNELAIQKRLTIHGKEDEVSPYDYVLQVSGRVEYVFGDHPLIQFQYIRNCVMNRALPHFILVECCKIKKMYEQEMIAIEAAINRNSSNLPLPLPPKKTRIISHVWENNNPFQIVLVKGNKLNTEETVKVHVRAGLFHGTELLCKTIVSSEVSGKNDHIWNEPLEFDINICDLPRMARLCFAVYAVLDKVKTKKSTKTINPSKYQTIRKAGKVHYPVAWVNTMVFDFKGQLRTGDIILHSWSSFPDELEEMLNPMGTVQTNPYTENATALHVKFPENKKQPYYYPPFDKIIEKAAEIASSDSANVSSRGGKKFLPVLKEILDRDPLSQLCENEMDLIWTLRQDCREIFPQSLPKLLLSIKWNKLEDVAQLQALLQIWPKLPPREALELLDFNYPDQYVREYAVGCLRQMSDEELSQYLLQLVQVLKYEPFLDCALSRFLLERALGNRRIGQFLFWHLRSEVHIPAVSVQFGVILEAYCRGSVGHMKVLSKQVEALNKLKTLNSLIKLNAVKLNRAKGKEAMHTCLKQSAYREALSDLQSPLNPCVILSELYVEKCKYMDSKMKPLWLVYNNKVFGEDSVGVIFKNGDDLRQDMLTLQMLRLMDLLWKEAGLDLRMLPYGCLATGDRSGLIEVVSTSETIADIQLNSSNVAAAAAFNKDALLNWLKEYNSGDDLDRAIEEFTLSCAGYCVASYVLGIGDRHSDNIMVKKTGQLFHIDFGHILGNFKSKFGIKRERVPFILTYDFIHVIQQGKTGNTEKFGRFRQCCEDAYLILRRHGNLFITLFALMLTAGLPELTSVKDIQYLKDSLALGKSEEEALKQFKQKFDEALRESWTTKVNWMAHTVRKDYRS

Hepatocyte growth factor receptor, sequence (P08581 whole entry, canonical isoform): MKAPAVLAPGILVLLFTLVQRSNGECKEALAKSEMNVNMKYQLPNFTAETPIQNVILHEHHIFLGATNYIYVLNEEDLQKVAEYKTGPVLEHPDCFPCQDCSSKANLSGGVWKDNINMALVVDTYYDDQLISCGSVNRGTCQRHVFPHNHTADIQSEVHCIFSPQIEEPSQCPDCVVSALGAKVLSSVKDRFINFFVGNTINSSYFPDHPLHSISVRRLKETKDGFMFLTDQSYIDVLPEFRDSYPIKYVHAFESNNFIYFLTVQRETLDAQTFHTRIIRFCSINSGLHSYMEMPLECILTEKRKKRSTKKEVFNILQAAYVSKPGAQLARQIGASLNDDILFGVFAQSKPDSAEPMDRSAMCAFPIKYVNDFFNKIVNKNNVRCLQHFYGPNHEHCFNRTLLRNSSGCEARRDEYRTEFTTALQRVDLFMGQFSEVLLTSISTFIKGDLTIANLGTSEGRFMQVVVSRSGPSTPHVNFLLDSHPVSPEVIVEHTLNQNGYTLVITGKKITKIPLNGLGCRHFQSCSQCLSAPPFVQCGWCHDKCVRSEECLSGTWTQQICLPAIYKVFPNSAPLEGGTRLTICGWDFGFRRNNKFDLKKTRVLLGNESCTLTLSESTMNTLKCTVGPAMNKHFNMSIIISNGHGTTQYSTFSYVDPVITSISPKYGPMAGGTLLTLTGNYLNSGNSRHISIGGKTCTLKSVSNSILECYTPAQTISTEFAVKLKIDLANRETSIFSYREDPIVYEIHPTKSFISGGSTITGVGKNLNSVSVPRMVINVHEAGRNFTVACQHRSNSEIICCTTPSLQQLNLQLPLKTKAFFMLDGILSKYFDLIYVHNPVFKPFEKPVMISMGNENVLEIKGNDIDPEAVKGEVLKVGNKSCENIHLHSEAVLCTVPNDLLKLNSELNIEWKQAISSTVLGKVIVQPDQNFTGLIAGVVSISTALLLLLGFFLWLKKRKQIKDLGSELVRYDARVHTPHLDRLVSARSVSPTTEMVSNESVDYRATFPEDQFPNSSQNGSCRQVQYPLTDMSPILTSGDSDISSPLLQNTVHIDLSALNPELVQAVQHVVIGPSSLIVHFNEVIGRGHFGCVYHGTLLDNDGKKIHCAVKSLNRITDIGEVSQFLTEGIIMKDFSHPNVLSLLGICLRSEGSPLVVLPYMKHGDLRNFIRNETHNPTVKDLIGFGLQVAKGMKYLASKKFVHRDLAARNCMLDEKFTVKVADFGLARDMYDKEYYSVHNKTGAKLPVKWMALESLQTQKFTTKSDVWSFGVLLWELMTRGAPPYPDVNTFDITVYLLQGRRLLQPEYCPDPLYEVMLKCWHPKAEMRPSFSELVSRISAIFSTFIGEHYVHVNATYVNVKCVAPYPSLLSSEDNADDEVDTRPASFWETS
Tyrosine-protein kinase JAK2, sequence (O60674 whole entry): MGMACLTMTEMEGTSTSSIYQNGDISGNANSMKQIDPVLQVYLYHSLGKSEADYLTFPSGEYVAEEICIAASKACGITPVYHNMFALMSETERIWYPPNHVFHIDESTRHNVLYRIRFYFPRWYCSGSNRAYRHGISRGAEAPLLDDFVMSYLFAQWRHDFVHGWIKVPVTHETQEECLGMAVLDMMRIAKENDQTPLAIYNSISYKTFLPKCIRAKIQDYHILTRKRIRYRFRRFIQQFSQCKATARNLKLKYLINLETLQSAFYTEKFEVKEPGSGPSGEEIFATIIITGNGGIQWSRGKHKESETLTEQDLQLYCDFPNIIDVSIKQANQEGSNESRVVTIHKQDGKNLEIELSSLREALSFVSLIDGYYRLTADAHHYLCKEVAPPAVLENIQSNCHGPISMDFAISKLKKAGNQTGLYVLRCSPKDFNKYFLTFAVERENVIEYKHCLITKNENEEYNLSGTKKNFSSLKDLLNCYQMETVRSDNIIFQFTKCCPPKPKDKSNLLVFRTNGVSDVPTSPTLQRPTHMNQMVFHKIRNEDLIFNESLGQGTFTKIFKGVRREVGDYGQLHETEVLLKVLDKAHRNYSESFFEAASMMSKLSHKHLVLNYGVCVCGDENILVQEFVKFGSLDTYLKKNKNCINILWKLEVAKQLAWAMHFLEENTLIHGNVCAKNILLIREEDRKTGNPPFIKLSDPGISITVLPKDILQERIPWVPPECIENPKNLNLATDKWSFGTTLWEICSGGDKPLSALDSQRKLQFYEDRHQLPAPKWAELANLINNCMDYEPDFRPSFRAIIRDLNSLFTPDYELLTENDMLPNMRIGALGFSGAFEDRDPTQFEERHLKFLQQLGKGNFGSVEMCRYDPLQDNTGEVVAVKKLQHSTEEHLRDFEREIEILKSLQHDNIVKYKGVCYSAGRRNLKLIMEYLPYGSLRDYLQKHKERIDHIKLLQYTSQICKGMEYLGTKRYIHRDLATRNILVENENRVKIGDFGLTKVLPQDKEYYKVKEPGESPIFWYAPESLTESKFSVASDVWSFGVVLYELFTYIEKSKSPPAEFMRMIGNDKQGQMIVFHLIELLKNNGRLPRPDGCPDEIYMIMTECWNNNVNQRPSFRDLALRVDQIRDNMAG
Mitogen-activated protein kinase 10, sequence (P53779 whole entry): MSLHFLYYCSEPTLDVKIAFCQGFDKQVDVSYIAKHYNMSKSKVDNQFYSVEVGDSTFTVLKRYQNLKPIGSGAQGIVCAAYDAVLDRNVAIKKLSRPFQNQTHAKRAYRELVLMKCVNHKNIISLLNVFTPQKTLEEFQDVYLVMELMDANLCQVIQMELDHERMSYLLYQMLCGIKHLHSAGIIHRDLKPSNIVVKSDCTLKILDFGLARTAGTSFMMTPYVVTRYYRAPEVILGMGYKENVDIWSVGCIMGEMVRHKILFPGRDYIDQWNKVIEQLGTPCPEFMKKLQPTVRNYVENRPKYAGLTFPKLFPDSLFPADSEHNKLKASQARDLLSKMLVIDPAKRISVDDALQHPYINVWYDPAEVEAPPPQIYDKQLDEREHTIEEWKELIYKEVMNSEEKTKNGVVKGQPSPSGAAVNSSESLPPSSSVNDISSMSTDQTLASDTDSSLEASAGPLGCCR
Proto-oncogene tyrosine-protein kinase Src, sequence (P12931 2-536 limits assumed): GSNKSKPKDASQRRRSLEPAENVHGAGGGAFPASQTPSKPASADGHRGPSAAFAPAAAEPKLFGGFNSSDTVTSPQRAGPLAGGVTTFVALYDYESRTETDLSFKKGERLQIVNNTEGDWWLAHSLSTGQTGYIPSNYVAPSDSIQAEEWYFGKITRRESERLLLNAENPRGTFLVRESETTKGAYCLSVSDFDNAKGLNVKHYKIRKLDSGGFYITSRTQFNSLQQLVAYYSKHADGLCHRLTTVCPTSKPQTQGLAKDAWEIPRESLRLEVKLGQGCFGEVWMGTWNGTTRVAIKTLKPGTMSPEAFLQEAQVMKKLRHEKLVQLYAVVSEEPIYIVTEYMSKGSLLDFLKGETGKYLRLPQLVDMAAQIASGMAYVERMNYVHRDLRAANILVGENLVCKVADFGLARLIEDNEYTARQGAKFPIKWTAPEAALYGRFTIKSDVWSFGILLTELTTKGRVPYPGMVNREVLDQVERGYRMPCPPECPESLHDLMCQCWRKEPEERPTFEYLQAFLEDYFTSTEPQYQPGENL

Turning to `Oc1cc([C@H]2C3CCC(CC3)[C@@H]2Nc2nc(-c3c[nH]c4ncc(F)cc34)ncc2F)on1` (mixture of isomers), the IC50 in assay [1] stood at 0.001 µM. In addition, the EC50 in assay [2] amounted to 0.002 µM. The EC99 in assay [2] is 0.033 µM. The Ki in [3] was > 4 µM; in [4] it was 1.6 µM; in [5], > 4 µM; in [6], > 4 µM; in assay [7], > 4 µM; in assay [8], > 4 µM. Further, the Ki in [9], in assay [10], in [11], in assay [12], in assay [13] and in assay [14] was > 4 µM throughout. Moreover, the Ki in [15] was > 4 µM; in assay [16], 1.3 µM; in assay [17] it was > 4 µM; in assay [18], 0.69 µM; in assay [19] it was > 4 µM.
Take `O=P(O)(O)[C@H]1C2CCC(CC2)[C@@H]1Nc1nc(-c2c[nH]c3ncc(F)cc23)ncc1F` (mixture of isomers): in assay [1], the IC50 was 0.091 µM. Also, in [2], the EC50 was 0.051 µM. In [2], the EC99 amounted to 0.29 µM. Moreover, the Ki in [3] is > 4 µM; in assay [4] it was > 4 µM; in [5], 1.1 µM; in [6] it was > 4 µM; in [7], > 4 µM; in [8] it was > 4 µM. The Ki in [9], in [10], in assay [11], in [12], in [13] and in [14] was > 4 µM each time. For the same compound, the Ki in [15], in assay [16], in [17], in assay [18] and in [19] was > 4 µM each time.
For `CNC(=O)[C@H]1C2CCC(CC2)[C@@H]1Nc1nc(-c2c[nH]c3ncc(F)cc23)ncc1F` (mixture of isomers), the IC50 in assay [1] was found to be 0.014 µM. In assay [2], the EC50 stood at 0.035 µM. The EC99 in [2] amounted to 0.31 µM. Moreover, the Ki in assay [3] is 1.1 µM; in assay [4] it was 0.23 µM; in assay [5], 1.4 µM; in [6], > 4 µM; in assay [7], > 4 µM; in assay [8], > 4 µM. In addition, the Ki in [9] was 2.5 µM; in assay [10], > 4 µM; in [11], > 4 µM; in assay [12], > 4 µM; in assay [13] it was > 4 µM; in assay [14], > 4 µM. Further, the Ki in assay [15], in [16], in assay [17], in assay [18] and in assay [19] was > 4 µM throughout.
Consider `Cc1nnc([C@H]2C3CCC(CC3)[C@@H]2Nc2nc(-c3c[nH]c4ncc(F)cc34)ncc2F)o1` (mixture of isomers), for which the IC50 in [1] was found to be 0.13 µM. Besides, the EC50 in assay [2] stood at 0.17 µM. In [2], the EC99 came out at 1.9 µM. The Ki in assay [3] is > 4 µM; in assay [4] it was 1.1 µM; in assay [5] it was 1.8 µM; in assay [6], > 4 µM; in assay [7], > 4 µM; in assay [8] it was > 4 µM. The Ki in [9], in assay [10], in [11], in [12], in assay [13] and in assay [14] was > 4 µM each time. Besides, the Ki in assay [15] is > 4 µM; in assay [16] it was > 4 µM; in assay [17], 1.2 µM; in [18], 2.8 µM; in assay [19] it was > 4 µM.
`Oc1cc([C@H]2C3CCC(CC3)[C@@H]2Nc2nc(-c3c[nH]c4ncc(F)cc34)ncc2F)[nH]n1` (mixture of isomers): the IC50 in assay [1] amounted to 0.16 µM. For the same compound, the EC50 in [2] stood at 0.14 µM. The EC99 in assay [2] was 0.76 µM. Further, the Ki in assay [3] is > 4 µM; in assay [4], 1.2 µM; in [5], 4 µM; in assay [6], > 4 µM; in [7] it was > 4 µM; in assay [8], > 4 µM. Also, the Ki was > 4 µM in [9]; > 4 µM in assay [10]; > 4 µM in assay [11]; > 4 µM in assay [12]; > 4 µM in [13]; 1.7 µM in assay [14]. For the same compound, the Ki in assay [15], in assay [16], in [17], in assay [18] and in assay [19] was > 4 µM each time.
